Melting point data for 60 compounds are collected here from a melting point compilation (Tetko et al.; mined from patent text by program, amines drawn as free bases though some values may be those of a salt).

SMILES strings stand for the structures.

What is called melting point is the temperature of the solid-liquid transition.

Consider `O=C(O)COc1ccc(CCC(=O)c2ccc(-c3ccc(C(F)(F)F)cc3)s2)c(Cl)c1Cl`, for which the melting point lay in the range of 217 to 219 °C.
For `Cc1cccc(Nc2c([N+](=O)[O-])cc(C(=O)O)cc2S(N)(=O)=O)c1`, the melting point was in the range of 256 to 259 °C.
With `NC(=O)[C@@H]1[C@H](NC(=O)/C(=N\OCC(=O)OCc2ccc([N+](=O)[O-])cc2)c2csc(NC(=O)CCl)n2)C(=O)N1OCC(=O)OCc1ccc([N+](=O)[O-])cc1`, the melting point was 147 to 153 °C.
Next, `Cc1ccccc1-c1cn(C)cc(-c2cccc(C(F)(F)F)c2)c1=O`: 144 to 147 °C; `Nc1cccc2c1cnn2-c1ccc(F)cc1`: 84 to 88 °C; `CCOC(=O)OC1=C([C@H]2CC[C@H](c3ccc(Cl)cc3)CC2)C(=O)c2ccccc2C1=O`: 145 to 149 °C.
Take `CC(C)(C)c1cc(CCc2ccccc2NC(=O)NC2CCN(Cc3ccccc3)CC2)cc(C(C)(C)C)c1O`: the melting point was in the range of 79 to 81 °C.
Next, `CC(C)(C)OC(=O)N1CCC(O)(CS(=O)(=O)NC(=O)c2cc(C(F)(F)F)cc(C(F)(F)F)c2)CC1`: 154 to 159 °C; `Nc1sc2c(c1C(=O)c1ccc3ccccc3c1)CCC(Cc1ccccc1)C2` (stereo not given): 69 to 70 °C; `O=c1ccc(-c2c(-c3ccccc3)nn3ccccc23)nn1-c1ccccc1`: 170 °C.
In the case of `CN(C)C(=O)c1cccnc1S(=O)(=O)Br`, the melting point is 108 to 111 °C.
In the case of `Cc1nc(C(=O)N2CCCC2)c2n1-c1ccc(Cl)cc1C(c1ccccc1F)=NC2`, the melting point lay in the range of 220 to 221 °C.
Compound `CCCC=Cc1c(C(C)C)nc(C(C)C)c(CO)c1-c1ccc(C)cc1` came in with a melting point of 72 to 75 °C.
In turn, `O=C(O)Cc1ccc(OCCNC(=O)C2Cc3ccccc3N2S(=O)(=O)c2ccc(-c3ccc(F)cc3)c(C(F)(F)F)c2)cc1` (stereo not given) had a melting point of 92 °C.
In turn, `N#Cc1ccc(C(=O)N2CCN(NC(=O)c3ccc(F)cc3)CC2)cc1` showed a melting point of 222 to 224 °C.
Next, `O=C(NCCCc1ccccc1)c1ccc2c(c1)C(Cl)(Cl)c1cc(C(=O)NCCCc3ccccc3)ccc1-2`: 165 to 167 °C; `Clc1ccc(C(=Cn2cncn2)c2ccc(Cl)cc2)cc1`: 126 to 128 °C.
In turn, `CNC(=O)C1=CC(C)(C)Oc2ccc(C(F)(F)F)cc21` displayed a melting point of 146 to 150 °C.
In the case of `Cc1nc(C(F)(F)F)c(C(=O)Nc2ccccc2-c2cc(F)c(F)c(F)c2)s1`, the melting point lay within 148 to 152 °C.
`CN1CCC2(C)c3cc(C(=O)C(=O)OCc4ccccc4)ccc3N(C)C12` (stereo not given) gave a melting point of 53 to 57 °C.
Next, `COc1cc(Nc2nccc(-c3sc(N)nc3C)n2)cc(OC)c1`: 269 to 271 °C; `CSc1noc(C2CC2)c1C(=O)c1ccc(C(F)(F)F)cc1S(C)(=O)=O`: 145 to 146 °C; `Cc1cccc(CN(CCC(=O)O)c2nc(NC(=O)Nc3ccccc3O)nc(Nc3ccccc3-c3ccccc3)n2)c1`: 122 to 124 °C.
The value for `CCc1[nH]c2ccc(OC)cc2c1C=O` was 211 to 212 °C; that for `CN(C)n1c(NN)nc2ccccc2c1=O` was 125 to 127 °C.
The compound `C#Cc1ccc2c(c1)C(c1ccccc1F)=NCc1c(C(=O)NC)ncn1-2` returned a melting point of 235 to 236 °C.
As to `Oc1ccc(-c2nn(C3CCCC3)c3c(F)cccc23)cc1`, the melting point was 131 °C.
Regarding `NC(=O)N(O)Cc1ccco1`, the melting point was 128 to 131 °C.
The compound `NC(=O)C1CN1Cc1ccccc1` (stereo not given) gave a melting point of 114 to 116 °C.
The compound `O=C(O)C1CCCC(NC(=O)C(CS)Cc2ccccc2)C1` (stereo not given) gave a melting point of 174 to 177 °C.
On to `CS(=O)(=O)c1ccc(-n2nc(C(F)(F)F)cc2-c2ccc(-c3cscn3)cc2)cc1F`, for which the melting point lay within 125 to 127 °C.
Turning to `COC(=O)CS(=O)(=O)C1CCCCC1Sc1cc(C(C)(C)C)c(O)c(C(C)(C)C)c1` (stereo not given), the melting point came to 93 °C.
For the compound `CNc1nc(-c2cccc(-c3ccccc3)c2)c2cc(OC)c(OC)cc2n1`, the melting point was 183 to 185 °C.
Turning to `Cc1nc2c(N)c(C(=O)C3OC3c3ccsc3)ccn2c1C` (stereo not given), the melting point was 186 to 189 °C.
The compound `CCCCCCCN(C[C@H]1CC[C@H](CN(CCCCCCC)C(=O)Nc2ccc(N(C)C)cc2)CC1)C(=O)Nc1ccc(N(C)C)cc1` yielded a melting point of 112 to 114 °C.
The compound `O=C(O)c1cc(NC(=O)C(CS)Cc2ccccc2)ccc1O` (stereo not given) returned a melting point of 206 to 209 °C.
`CCC(=O)N(C)c1cccc(-c2ccnc3c(C(=O)c4ccccc4)cnn23)c1`: the melting point was in the range of 154 to 156 °C.
With `CC(=O)Nc1cccc(-c2ccnc3c(C(=O)c4ccco4)cnn23)c1`, the melting point is 195 to 196 °C.
On to `C=C(c1ccccc1)c1ccc(N2CCCC2)cc1`, for which the melting point is 82.5 to 83 °C.
On to `CCOC(=O)CC[C@H](NC(=O)Oc1ccc(CCCCc2c(N)nc(N)nc2O)s1)C(=O)OCC`, for which the melting point lay within 96 to 98 °C.
With `O=c1ccccn1CC1(O)CCN(Cc2ccc(F)cc2)CC1`, the melting point lay within 154 to 156 °C.
Next, `Cc1oc(-c2ccc(C(F)(F)F)cc2)nc1COc1cccc(Cn2oc(=O)[nH]c2=O)c1`: 142 to 143 °C; `COc1ccc2c(c1)C(CC#N)C(=O)CC2` (stereo not given): 97 to 99 °C; `COc1ccc(C(=O)Nc2ccccc2C(c2ccc(O)cc2)c2ccc(O)cc2)cc1`: 154 to 156 °C.
Next, `Cc1oncc1CN1C(=O)C2(COc3cc4c(cc32)OCO4)c2ccccc21` (stereo not given): 159 to 161 °C.
For the compound `Clc1ccc2oc(-c3ccc(N4CCCCC4)cc3)nc2c1`, the melting point lay within 162 to 164 °C.
As to `OC(CCCN1CC=C(c2ncco2)CC1)c1ccc(F)cc1` (stereo not given), the melting point was 100 to 103 °C.
Turning to `CCCN(C(=O)COc1c(Cl)cccc1Cl)C1CCc2c(ccc(O)c2O)C1` (stereo not given), the melting point lay in the range of 157 to 159 °C.
For `COc1cc(OC)cc(-c2nc[nH]c2-c2ccc(OC)c(N)c2F)c1`, the melting point lay within 118 to 120 °C.
The value for `COC(=O)c1ccc(Cl)c(Cl)c1NS(C)(=O)=O` was 100 to 102 °C; that for `Cc1cn(C2CC(O)C(COC(c3ccccc3)(c3ccccc3)c3ccccc3)O2)c(=O)[nH]c1=O` (stereo not given) was 107 to 110 °C; that for `CCCCn1c(CO)nc2cnc3ccccc3c21` was 146 to 149 °C.
`CC(C)c1ccc(N(Cc2cn[nH]c2)C(=O)C2CCCc3c(O)cccc32)cc1` (stereo not given) had a melting point of 247 °C.
`CCOC(=S)c1c(CC)nc2ccccn12` yielded a melting point of 71 to 73 °C.
As for `COc1ccc(C2CCCCC2=O)cc1` (stereo not given), the melting point is 90 °C.
In turn, `CN(C(=O)c1cn2ccc(-c3ccc(Cl)cc3)cc2n1)C(Cc1ccc(OCc2ccccc2)cc1)C(=O)O` (stereo not given) registered a melting point of 222 °C.
Compound `O=C1C(c2cccc(-c3ccccc3)c2)n2cncc2CN1Cc1ccccc1` (stereo not given) registered a melting point of 232 to 234 °C.
In the case of `CC(C)Oc1ccc2c(c1)N(C)C(=O)N(c1ccc(Cl)cc1)S2(=O)=O`, the melting point was in the range of 157 to 159 °C.
In the case of `CN1CCN(C(=O)OC2C3=C(SCCS3)C(=O)N2c2ccccc2)CC1` (stereo not given), the melting point amounted to 166 °C.
`Oc1cccc(CCNCc2ccccc2)c1` had a melting point of 86 to 88 °C.
